Consider 25 compounds from patent US5169863A, “Hypersphyxia-causing methods” (K.K. Ueno Seiyaku Oyo Kenkyujo, priority 1988, dated 1992).

Assay [1] can be described thus: changing rate of blood pressure and heart rate by intravenous injection in anesthetized rats. It counts as in vivo, Wister male rats. Particulars: for change in vivo at 1 mg/kg: Rattus norvegicus; for blood pressure effect (in words): Example 1 conclusion. How it is done:
(blood pressure, heart rate increasing action by intravenous injection) Wister male rats (8 weeks old) were used as test animals. The rats were applied to anesthesia by intraperitoneal administration with 1.25 g/kg of urethane. The blood pressure was determined by inserting a polyethylene tube into a femoral artery, which was connected with a pressure transducer. The heart rate was determined from R wave of electrocardiograms (ECG) induced by standard limb lead II with a tachometer. Each test compound was dissolved in ethanol and intravenously administered to rats in 1 mg/kg diluted with Ringer's solution just before use. The maximum concentration of ethanol was 2 percent. An ethanol-containing Ringer without any test compound was used as a control to confirm the influence of the ethanol in each experiment. Each changing rate (%) in the blood pressure and heart rate before and after administration was determined, and the average of 3-4 experiments was shown in Table 1. Changing rates of blood pressure and heart rate were determined in the same manner as described in Example 1 except that the test compounds 60, 61 and 62 were used in different concentrations instead of the test compounds 1-55.

Assay [2] in a line: progressing a breath (change rate of breath rate). The class given is in vivo, Wister male rats. To be noted: tail vein, rats; for change in vivo at 1 mg/kg: Rattus norvegicus, iv. The procedure: Wister male rats (8 weeks old) were applied to anesthesia by intraperitoneal administration with 1.25 g/kg of urethane. A pick-up for breath was fixed on a top of a rat's nose, and the breath curve was recorded on a polygraph while the breath rate was counted with a tachometer.
Each test compound was dissolved in ethanol and administered to rats through a tale vein in 1 mg/kg as diluted with Ringer's solution just before use. The maximum concentration of ethanol was 2 percent. Ringers solution containing ethanol but not containing test compound was administered at every experiment as a control. The change rates (%) of the breath rate before and after administration were determined, and evaluated as progressing activity of breath.

Where [3] appears, read: 1 (mg/kg), Table 1, read-out: changing rate of blood pressure.
Where [4] appears, read: 1 (mg/kg), Table 1, read-out: changing rate of heart rate.

Regarding `CCCCCC(=O)CC[C@H]1[C@H](O)CC(=O)[C@@H]1C/C=C\CCCC(=O)OCc1ccccc1` [Compound 25, 13,14-dihydro-15-keto-PGE2 benzyl ester], the change in vivo at 1 mg/kg was 2% in assay [1] (setting [3]), 5% in assay [1] (setting [4]) and 22% in assay [2].

For the compound `CCCCCC(=O)CC[C@H]1[C@H](O)CC(=O)[C@@H]1C/C=C\CCCC(=O)OCCO` [Compound 26, 13,14-dihydro-15-keto-PGE2 hydroxyethyl ester], the “changing rate of blood pressure” value in assay [1] (0.2, Table 1) was 0%; in assay [1] (0.5, Table 1) it was 0%; in assay [1] (1 (mg/kg), Table 1), “+2%”. For the same compound, the “changing rate of heart rate” value in assay [1] (0.2, Table 1) is on record as 0%; in assay [1] (0.5, Table 1) it was 0%; in assay [1] (1 (mg/kg), Table 1), “+7%”. For the same compound, the “progressing activity % of breath” value in assay [2] (1 mg/kg) is “+22%”.

With `CCCCCC(=O)CC[C@H]1[C@H](O)CC(=O)[C@@H]1C/C=C\CC=CC(=O)OC` [Compound 27, 13,14-dihydro-15-keto-Δ^2 -PGE2-methyl ester], the change in vivo at 1 mg/kg in assay [1] (setting [3]) was 6%; in assay [1] (setting [4]), 21%; in assay [2] it was 11%.

Regarding `CCCCCC(=O)CC[C@H]1[C@H](O)CC(=O)[C@@H]1C/C=C\CC(C)CC(=O)OC` (stereo partly drawn) [Compound 28, 13,14-dihydro-15-keto-3R,S-methyl-PGE2 methyl ester], the figures for the change in vivo at 1 mg/kg in assay [1] (setting [3]), in assay [1] (setting [4]) and in assay [2] were 12%, 33% and 40%, respectively.

For `CCCCCC(=O)CC[C@H]1[C@H](O)CC(=O)[C@@H]1C/C=C\CC(C)CC(=O)OCC` (stereo partly drawn) [Compound 29, 13,14-dihydro-15-keto-3R,S-methyl-PGE2 ethyl ester], the values for the change in vivo at 1 mg/kg in assay [1] (setting [3]), in assay [1] (setting [4]) and in assay [2] were 7%, 17% and 11%, respectively.

On to `CCCCC(C)C(=O)CC[C@H]1[C@H](O)CC(=O)[C@@H]1C/C=C\CCCC(=O)OC` (stereo partly drawn) [Compound 30, 13,14-dihydro-15-keto-16R,S-methyl-PGE2 methyl ester], for which the change in vivo at 1 mg/kg in assay [1] (setting [3]) came to 14%; in assay [1] (setting [4]), 29%; in assay [2], 61%.

Consider `CCCCC(C)C(=O)CC[C@H]1[C@H](O)CC(=O)[C@@H]1C/C=C\CCCC(=O)OCC` (stereo partly drawn) [Compound 31, 13,14-dihydro-15-keto-16R,S-methyl-PGE2 ethyl ester], for which the change in vivo at 1 mg/kg in assay [1] (setting [3]) came to 14%; in assay [1] (setting [4]), 46%; in assay [2] it was 40%.

As to `CCCCC(C)C(=O)CC[C@H]1[C@H](O)CC(=O)[C@@H]1C/C=C\CC(C)CC(=O)OC` (stereo partly drawn) [Compound 32, 13,14-dihydro-15-keto-3R,S-16R,S-dimethyl-PGE2 methyl ester], the change in vivo at 1 mg/kg in assay [1] (setting [3]) is 14%; in assay [1] (setting [4]) it was 30%; in assay [2], 41%.

Take `CCCCC(C)(C)C(=O)CC[C@H]1[C@H](O)CC(=O)[C@@H]1C/C=C\CCCC(=O)OC` [Compound 33, 13,14-dihydro-15-keto-16,16-dimethyl-PGE2 methyl ester]: the change in vivo at 1 mg/kg in assay [1] (setting [3]) stood at 20%; in assay [1] (setting [4]), 28%; in assay [2], 40%.

For the compound `CCCCC(C)(C)C(=O)CC[C@H]1[C@H](O)CC(=O)[C@@H]1C/C=C\CCCC(=O)OCC` [Compound 34, 13,14-dihydro-15-keto-16,16-dimethyl-PGE2 ethyl ester], the figures for the change in vivo at 1 mg/kg in assay [1] (setting [3]), in assay [1] (setting [4]) and in assay [2] were 6%, 29% and 31%, respectively.

Turning to `CCCCC(O)C(=O)CC[C@H]1[C@H](O)CC(=O)[C@@H]1C/C=C\CCCC(=O)OCC` (stereo partly drawn) [Compound 35, 13,14-dihydro-15-keto-16R,S-hydroxy-PGE2 ethyl ester], the change in vivo at 1 mg/kg in assay [1] (setting [3]) turned out to be 17%; in assay [1] (setting [4]), 27%; in assay [2], 37%.

Take `CCCCC(F)C(=O)CC[C@H]1[C@H](O)CC(=O)[C@@H]1C/C=C\CCCC(=O)OCC` (stereo partly drawn) [Compound 38, 13,14-dihydro-15-keto-16R,S-fluoro-PGE2 ethyl ester]: the change in vivo at 1 mg/kg in assay [1] (setting [3]) was determined as 14%; in assay [1] (setting [4]), 15%; in assay [2] it was 47%.

As for `CCCCC(F)C(=O)CC[C@H]1[C@H](C)CC(=O)[C@@H]1C/C=C\CCCC(=O)OCC` (stereo partly drawn) [Compound 40, 13,14-dihydro-15-keto-16R,S-fluoro-11-dehydroxy-11R-methyl-PGE2 ethyl ester], the change in vivo at 1 mg/kg worked out at 17% in assay [1] (setting [3]), 27% in assay [1] (setting [4]) and 16% in assay [2].

`CCCCCC(=O)CC[C@H]1[C@H](C)CC(=O)[C@@H]1C/C=C\CCCC(=O)OCC` [Compound 41, 13,14-dihydro-15-keto-11-dehydroxy-11R-methylPGE2 ethyl ester]: the change in vivo at 1 mg/kg in assay [1] (setting [3]) was 11%; in assay [1] (setting [4]) it was 26%; in assay [2] it was 20%.

Regarding `CCC[C@H](C)CC(=O)CC[C@H]1[C@H](O)CC(=O)[C@@H]1C/C=C\CCCC(=O)OC` [Compound 42, 13,14-dihydro-15-keto-17S-methyl-PGE2 methyl ester], the results for the change in vivo at 1 mg/kg in assay [1] (setting [3]), in assay [1] (setting [4]) and in assay [2] were 12%, 7% and 28%, respectively.

As for `COC(=O)CCC/C=C\C[C@H]1C(=O)C[C@@H](O)[C@@H]1CCC(=O)CCCC(C)C` [Compound 43, 13,14-dihydro-15-keto-19-methyl-PGE2 methyl ester], the change in vivo at 1 mg/kg was 14% in assay [1] (setting [3]), 45% in assay [1] (setting [4]) and 41% in assay [2].

Regarding `CCOC(=O)CCC/C=C\C[C@H]1C(=O)C[C@@H](O)[C@@H]1CCC(=O)CCCC(C)C` [Compound 44, 13,14-dihydro-15-keto-19-methyl-PGE2 ethyl ester], the results for the change in vivo at 1 mg/kg in assay [1] (setting [3]), in assay [1] (setting [4]) and in assay [2] were 20%, 30% and 16%, respectively.

With `COCCCCCC(=O)CC[C@H]1[C@H](O)CC(=O)[C@@H]1C/C=C\CCCC(=O)OC` [Compound 45, 13,14-dihydro-15-keto-20-methoxy-PGE2 methyl ester], the change in vivo at 1 mg/kg in assay [1] (setting [3]) was determined as 2%; in assay [1] (setting [4]), 4%; in assay [2], 10%.

On to `COCCCCCC(=O)CC[C@H]1[C@H](O)CC(=O)[C@@H]1C/C=C\CC=CC(=O)OC` [Compound 46, 13,14-dihydro-15-keto-20-methoxy-Δ^2 -PGE2 methyl ester], for which the change in vivo at 1 mg/kg in assay [1] (setting [3]) is 5%; in assay [1] (setting [4]) it was 13%; in assay [2], 10%.

For `COCCCCCC(=O)CC[C@H]1[C@H](O)CC(=O)[C@@H]1C/C=C\CC(C)CC(=O)OC` (stereo partly drawn) [Compound 47, 13,14-dihydro-15-keto-3R,S-methyl-20-methoxy-PGE2 methyl ester], the results for the change in vivo at 1 mg/kg in assay [1] (setting [3]), in assay [1] (setting [4]) and in assay [2] were 1%, 4% and 17%, respectively.

Consider `CC(C)=CCCCCC(=O)CC[C@H]1[C@H](O)CC(=O)[C@@H]1C/C=C\CCCC(=O)O` [Compound 49, 13,14-dihydro-15-keto-20-isopropylidene-PGE2], for which the results for the change in vivo at 1 mg/kg in assay [1] (setting [3]), in assay [1] (setting [4]) and in assay [2] were 2%, 3% and 18%, respectively.

Turning to `COC(=O)CCC/C=C\C[C@H]1C(=O)C[C@@H](O)[C@@H]1CCC(=O)CCCCC=C(C)C` [Compound 50, 13,14-dihydro-15-keto-20-isopropylidene-PGE2 methyl ester], the change in vivo at 1 mg/kg amounted to 2% in assay [1] (setting [3]), 5% in assay [1] (setting [4]) and 18% in assay [2].

On to `CCCCCCCC(=O)CC[C@H]1[C@H](O)CC(=O)[C@@H]1C/C=C\CCCC(=O)OC` [Compound 51, 13,14-dihydro-15-keto-20-ethyl-PGE2 methyl ester], for which the change in vivo at 1 mg/kg worked out at 1% in assay [1] (setting [3]), 14% in assay [1] (setting [4]) and 49% in assay [2].

Regarding `CCCCC[C@H](O)/C=C/[C@H]1[C@H](O)CC(=O)[C@@H]1C/C=C\CCCC(=O)O` [Compound 57, PGE2, reference compound], the “blood pressure effect (in words)” value in assay [1] was “blood pressure decreasing effect”. The change in vivo at 1 mg/kg in assay [1] (setting [3]) is -39%; in assay [1] (setting [4]), 14%; in assay [2] it was 55%.

For the compound `CCCCC[C@H](O)/C=C/[C@H]1[C@H](O)CC(=O)[C@@H]1C/C=C\CCCC(=O)OC` [Compound 58, PGE2 methyl ester, reference compound], the “blood pressure effect (in words)” value in assay [1] is “blood pressure decreasing effect”. Further, the results for the change in vivo at 1 mg/kg in assay [1] (setting [3]), in assay [1] (setting [4]) and in assay [2] were -11%, 33% and 35%, respectively.
